| melting point | Compound |
| --- | --- |
| 39 °C | COC(=O)c1cc(Cl)ccc1Br |
| 45 °C | COC(=O)C1CC(=O)c2ccccc21 (stereo unspecified) |
| 29 to 33 °C | O=C(OCc1ccccc1)OCc1ccccc1 |
| 88.5 °C | O=c1c2ccccc2ccc2ccccc12 |
| -89 °C | C1=CCCC=C1 |
| 35 °C | N#CCc1cc(F)cc(F)c1 |
| 162 °C | NC(=O)CSSCC(N)=O |
| -4 °C | FC(F)(F)C(F)(F)C(F)(F)C(F)(F)C(F)(F)C(F)(F)F |
| 240 °C | Cc1ccc2c(c1)C(=O)c1ccc(C)cc1C2=O |
| 218 °C | CSc1nc(NS(=O)(=O)c2ccc(C)cc2)c(C#N)c(-c2ccc(Cl)cc2)c1Br |
| 158 °C | COc1cc(O)ccc1C=O |
| 245 to 246 °C | N#Cc1cc([N+](=O)[O-])ccc1Sc1nnc(N)s1 |
| 120 °C | CC(C)C1OC(=O)C2CCC1(C)OC2(C)C (stereo unspecified) |
| 166 °C | Nc1ncccc1[N+](=O)[O-] |
| -36.9 °C | CC1CCC(C)CC1 (stereo unspecified) |
| 138 °C | O=C(Nc1ccccc1)OCc1c([N+](=O)[O-])cccc1[N+](=O)[O-] |
| 178 to 179 °C | COC(=O)c1cc2cc(N)ccc2s1 |
| 85 °C | COc1cccc(N)c1C(=O)O |
| 87 to 88 °C | Cc1cn(CCC(=O)O)c2ccccc12 |
| -121 °C | CC(C)C(C)C(C)(C)C (stereo unspecified) |
| 125 °C | CCOC(=O)C(CCc1ccccc1)NC(C)C(=O)N1Cc2ccccc2CC1C(=O)O (stereo unspecified) |
| 142 °C | CCCN(CCC)C(=O)C(CCC(=O)O)NC(=O)c1ccccc1 (stereo unspecified) |
| 131 °C | COc1ccc([N+](=O)[O-])c(N)c1 |

| melting point | Compound |
| --- | --- |
| 194 °C | Cc1cc(-n2c(=O)[nH]c(=O)n(C)c2=O)ccc1Oc1ccc(SC(F)(F)F)cc1 |
| 100 °C | C[C@]1(O)C#CCCCCCC#C[C@@](C)(O)CC1 |
| 95 °C | CCOC(=O)c1c(SC)nn(C(=O)c2ccccc2)c1N |
| 50 to 53 °C | CCCCCCCCC(=O)Oc1ccc(/N=N/c2ccc(CCCC)cc2)cc1 |
| 198 °C | Cc1cc2ncn(C3OC(CO)C(O)C3O)c2cc1C (stereo unspecified) |
| 112 to 113 °C | CSC(S)=Nc1ccc(Cl)cc1 |
| 91 to 93 °C | COc1ccc(Oc2ccc([N+](=O)[O-])cc2C(=O)Cl)cc1 |
| 83 to 85 °C | O=C(CCCl)N1CCc2ccccc21 |
| 118 °C | O=C(O)Cc1cccc(F)c1F |
| 122 to 124 °C | CCNC=C(C(=O)OCC)C(=O)c1cnc(Cl)c(F)c1 |
| 141 °C | CCOC(=O)CSc1sc(C(=O)OCC)c(N)c1C#N |
| 263 °C | CC1C(=O)CCC2C1(C)CCC1C2(C)CCC2(C)C3CC(C)(C)CCC3(C)CCC12C (stereo unspecified) |
| 115 to 117 °C | NC(=NO)c1cccc(Cl)c1 |
| 160 °C | O=C(O)c1c(O)cccc1F |
| 236 °C | COc1ccc(C=Cc2cc(O)cc(OC3OC(CO)C(O)C(O)C3O)c2)cc1O (stereo unspecified) |
| 153 to 156 °C | N#CC1CN(C(c2ccccc2)c2ccccc2)C1 |
| 314 to 317 °C | O=c1[nH]c2ccc([N+](=O)[O-])cc2[nH]1 |
| 273 to 275 °C | Cc1n[nH]c(C)c1C(=O)O |
| 71 to 74 °C | Cc1nc(-c2ccc(CO)cc2)cs1 |
| 115 to 117 °C | O=C1Cc2c1cccc2[N+](=O)[O-] |
| 31 to 33 °C | Cc1cc(C=O)no1 |
| 277 °C | O=c1c(O)c(-c2ccc(O)cc2)oc2cc(O)cc(O)c12 |
| 160 °C | Cn1ncc2cc([N+](=O)[O-])ccc21 |

| melting point | Compound |
| --- | --- |
| 205 to 206 °C | COC(=O)C1=C(C)NC(CBr)=C(C(=O)OCCCl)C1c1cccc([N+](=O)[O-])c1 (stereo unspecified) |
| 78.5 °C | Sc1nccs1 |
| 29 °C | COc1cccc(C)c1C |
| 165 to 167 °C | O=Cc1c(Cl)ccc([N+](=O)[O-])c1Cl |
| 92 to 97 °C | Fc1ccc(C(Br)Br)c(C(Br)Br)c1 |
| 56 °C | OCCCCCCC(F)(F)C(F)(F)C(F)(F)C(F)(F)C(F)(F)C(F)(F)C(F)(F)C(F)(F)F |
| 132 to 134 °C | CC(=O)/C=C(\C)c1ccc(-c2ccccc2)cc1 |
| 13 °C | N#CC1CC2C=CC1C2 (stereo unspecified) |
| 134 °C | N#CC(Cc1ccc([N+](=O)[O-])cc1)c1ccccc1 (stereo unspecified) |
| 201 °C | Nc1cc(N)c(/C=C/c2ccccc2)cc1/C=C/c1ccccc1 |
| 200 °C | CC12CCC(C(=O)O)(OC1=O)C2(C)C (stereo unspecified) |
| 108 °C | CCCCCCCC(N)=O |
| 73 °C | COc1ccsc1CN(C(=O)CCl)c1c(C)cccc1C |
| -79 °C | CN1CCCC1c1cccnc1 (stereo unspecified) |
| 73 to 75 °C | NC(=O)CCOC1CCN(Cc2ccccc2)CC1 |
| 170 °C | Cc1ccc2c(c1Cl)C(=O)c1ccccc1C2=O |
| -87 °C | Cc1cccc(F)c1 |
| 225 to 227 °C | CC(=O)Nc1ccccc1CCNC(=O)c1ccc2ccccc2c1O |
| -67 °C | CCCCCC(=O)OCC |
| 77 to 80 °C | CC(C)(NC(=O)OCc1ccccc1)C(=O)O |
| -99.7 °C | C=C[Si](C)(C)O[Si](C)(C)C=C |
| 49 °C | CC(=O)OCC(=O)c1ccccc1 |
| 192 to 194 °C | N#CC(C#N)=NNc1cc(Cl)cc(Cl)c1 |

| melting point | Compound |
| --- | --- |
| 198 °C | Cc1ccc(C)c(C=Cc2ccc(-c3ccc(C=Cc4cc(C)ccc4C)cc3)cc2)c1 |
| 175 to 178 °C | O=Cc1ccc(F)c(C(=O)O)c1 |
| 155 °C | NC(=O)C(CO)NC(=O)OCC1c2ccccc2-c2ccccc21 (stereo unspecified) |
| 121 °C | Oc1ccc(C2=Cc3ccccc3C(c3ccccc3)O2)cc1 (stereo unspecified) |
| -135 °C | C1CC12CC2 |
| 182 to 188 °C | COc1cc(O)c2c(=O)c(O[C@@H]3O[C@H](CO)[C@H](O)[C@H](O)[C@@H]3O[C@@H]3O[C@H](C)[C@H](O)[C@H](O)[C@@H]3O)c(-c3cccc(O)c3)oc2c1 |
| 134 to 139 °C | CC(C)(C)OC(=O)N[C@@H](Cc1c[nH]c2ccccc12)C(=O)O |
| -88.5 °C | ClC(Cl)=CBr |
| -80.6 °C | CCN(C#N)CC |
| 94 °C | O=Cc1cnc(Br)s1 |
| 72.5 °C | CC(C)C1CCCCC1=O (stereo unspecified) |
| 50 to 51 °C | Cc1ccc(S(=O)(=O)OCC#N)cc1 |
| 98 °C | Cc1ccc(C(O)c2cc(C)ccc2O)cc1 (stereo unspecified) |
| 136 °C | CC(=O)Nc1ccc(C(F)(F)F)cc1Cl |
| 218 °C | Cc1cc(C2(c3cc(C)c(O)c(Br)c3C)OS(=O)(=O)c3ccccc32)c(C)c(Br)c1O |
| 322 °C | O=c1c(Cl)c[nH]cc1Cl |
| 166 °C | CC(=O)C(=O)Nc1ccc(Br)cc1 |
| 73 °C | COc1cc(CCl)ccc1OCc1ccccc1 |
| 50 to 53 °C | O=[N+]([O-])c1cccc(OCCN2CCOCC2)c1 |
| 90 to 92.5 °C | CCOC=C(C#N)S(=O)(=O)c1ccc2ccccc2c1 |
| 247 to 249 °C | Nc1nc2ccc([N+](=O)[O-])cc2s1 |
| 42 °C | CCOc1ccccc1OCCBr |
| 190 °C | Clc1c(Cl)c(Cl)c2nccnc2c1Cl |

| melting point | Compound |
| --- | --- |
| 84.5 °C | CN(C)C(=O)CCC(=O)O |
| 238 °C | Clc1ccc(-c2nc3c4ccccc4ccn3n2)cc1 |
| 61.5 °C | CCC(CC)(CO)CO |
| 97 °C | O=C1c2ccccc2CC2CCCCN12 (stereo unspecified) |
| -69.5 °C | C=C(C)C(=O)CC |
| 56.3 °C | O=C1CCCC(=O)O1 |
| 52 °C | COc1cc(F)ccc1C(C)=O |
| 133 °C | CC(C)(C)OC(=O)NC1(C(=O)O)CCCC1 |
| 178 °C | CCN1CCCC1CNC(=O)c1cc(S(N)(=O)=O)ccc1OC (stereo unspecified) |
| 140 to 142 °C | O=C(NC(Cc1ccccc1)C(=O)O)OCc1ccccc1[N+](=O)[O-] (stereo unspecified) |
| 127 °C | OC1(C2(O)CCCCC2)CCCCC1 |
| 121 °C | O=C1/C(=C/c2ccccc2)SC(=S)N1CN1CCOCC1 |
| 194 °C | CS(=O)(=O)c1ccc(C(=O)O)c(Cl)c1 |
| 37 to 37.5 °C | CC(Cc1ccccc1)C(=O)O (stereo unspecified) |
| -12 °C | CCCCCCC(=O)OC(=O)CCCCCC |
| 82 to 84 °C | CSC(SC)=C(C#N)C#N |
| 286 °C | CCOC(=O)c1sc2sc(C(=O)OCC)c(NC(=O)c3ccccc3)c2c1NC(=O)c1ccccc1 |
| 47 to 48 °C | OCc1cccc2c1OCCCO2 |
| 39.5 °C | CC(=O)C=Cc1ccco1 |
| 102 to 108 °C | NC(=O)C1CCCNC1 (stereo unspecified) |

| Compound | melting point |
| --- | --- |
| COc1ccc2c(c1OC)C(=O)OC2C1c2cc3c(cc2CCN1C)OCO3 (stereo unspecified) | 132 °C |
| C[C@]12CC[C@H]3O[C@H]3[C@@H]1CC[C@@H]1[C@@H]2CC[C@]2(C)C(=O)CC[C@@H]12 | 158 °C |
| ClC(Cl)(Cl)c1ccc(C(Cl)(Cl)Cl)cc1 | 109 °C |
| COc1cccc(C(=O)CBr)c1 | 62 °C |
| O=C(O)C(c1ccc(Cl)cc1)c1ccc(Cl)cc1 | 168 °C |
| CCCCOC(=O)C1(O)c2ccccc2-c2ccccc21 | 71 °C |
| CC(=O)OC1CCC2C3CCC4CC5(CCC4(C)C3CCC12C)OCCO5 (stereo unspecified) | 144 °C |
| C=C(C)C(=O)Cl | -60 °C |
| FC(Cl)C(F)(F)F (stereo unspecified) | -199 °C |
| CC(C)CCC#N | -51 °C |
| ClCc1ccc2c(c1)OCO2 | 20.5 °C |
| N#CC(=O)c1ccccc1 | 32.5 °C |
| CNc1ccccc1C(=O)O | 180 °C |
| CN(CCO)CCO | -21 °C |
| O=C(O)CCP(=O)(O)O | 165 to 166 °C |
| CC1=NNC(=O)N(N=Cc2cccnc2)C1 | 217 °C |
| O=[N+]([O-])c1ccc(C(Cl)C(Cl)c2ccc(C(Cl)C(Cl)c3ccc([N+](=O)[O-])cc3[N+](=O)[O-])cc2)c([N+](=O)[O-])c1 (stereo unspecified) | 92 to 99 °C |
| CCCC1COC(Cn2cncn2)(c2ccc(Cl)cc2Cl)O1 (stereo unspecified) | < 25 °C |
| CCc1cc2c(s1)N(C)C(=O)CN=C2c1ccccc1Cl | 119 °C |
